Measurements taken from patent US12187662B2, “FOXM1 inhibitor compositions and methods of using the same” (The Board of Trustees of the University of Illinois, priority 2018, dated 2025).
“Also recorded” adds a separate entry of the source. Where two headings read alike, the source gives them in different places. Blank lines part the entries; values can stand above or below the molecule they belong to.

Tests used:
MCF7 cells = assay: Cell proliferation assay (WST-1), MCF7; assay type: cell-based, human
Method: (§1) All cells were tested for mycoplasma using Real-Time PCR Mycoplasma Detection Kit (Akron Biotech, Boca Raton, FL).
(§2) All assays were performed in triplicate.

[1] = Pharmacokinetic studies in mice after single s.c. or oral dose; conditions: for half-life / AUC(0-t): female, CD-1, mouse, plasma
Method: For s.c. injection, each compound was dissolved in DMSO and then mixed with corn oil for a total injection volume of 100 μL (10% DSMO+90% corn oil) per mouse. For oral gavage, compounds were administered in a 200 μL formulation of 9/0.5/0.5/90 parts of PEG400/Tween80/Povidone/0.5% Carboxymethylcellulose. […] Compounds were quantified by LC-MS/MS at the University of Illinois Metabolomics Core Facility. The data were fitted to a non-compartment model.

[2] = test system: FOXM1 target genes in MCF7 cells; assay: FOXM1 target gene expression by qRT-PCR, MCF7; assay type: cell-based, human; conditions: MCF7, 24 h, at IC50 concentration
Method: (§3) RNA was extracted from cells and expression of different genes was monitored by qRT-PCR. Assays were run in triplicate. Values are mean±SEM. *, p<0.05; **, p<0.01; ***, p<0.001. RNA isolation and real-time PCR Total RNA was isolated using TRIzol (Invitrogen) and reverse transcribed using […] reverse transcriptase (New England BioLabs). Real-time PCR was performed using SYBRgreen PCR Master Mix (Roche) as described (Bergamaschi et al., Breast Cancer Res., 2014, 16:436). Relative mRNA levels of genes were normalized to the housekeeping gene 36B4, and fold change calculated relative to the vehicle treated samples. Results are the average±SD from at least two independent experiments carried out in triplicate. Primer sequences for the genes studied were obtained from the Harvard Primer Bank. Sequences are available on their website.

[3] = test system: DT22 triple negative human breast tumor xenografts; assay: DT22 triple negative breast tumor xenografts in NSG mice; assay type: in vivo, mouse
Method: In vivo breast cancer xenograft studies For examination of the growth of triple-negative DT22 breast tumors, intact female NOD/SCID-gamma (NSG) mice were used. DT-22 cells (1×10^6 cells/mouse) were injected s.c. into the right axial mammary gland. Mice received s.c. injection or oral gavage daily or every second or third day, as indicated, with vehicle or FOXM1 inhibitor compound, and tumor growth was monitored over time.

[4] = test system: FOXM1 target genes in DT22 cells; assay: FOXM1 target gene expression by qRT-PCR, DT22; assay type: cell-based, human; conditions: DT22, 24 h, at IC50 concentration
Source text: as §3, with “Real-time PCR was performed using SYBRgreen PCR Master Mix (Roche) as described (Bergamaschi et al., Breast Cancer Res., 2014, 16:436).” left out

MDA-MB-231 cells = assay: Cell proliferation assay (WST-1), MDA-MB-231; assay type: cell-based, human
Method: as §1, §2

DT22 cells = assay: Cell proliferation assay (WST-1), DT22; assay type: cell-based, human
Method: as §1, §2

breast cancer cell lines = assay: Proliferation of breast cancer cell lines (panel, line not specified); assay type: cell-based, human; conditions: cell line not specified or several lines
Method: as §1, §2

[5] = Homo sapiens, MCF7, read-out: IC50 MCF7
[6] = sc, 40 mg/kg, PK s.c. AUC0-48, mice, 40 mg/kg s.c.
[7] = Homo sapiens, MCF7, inhibition of cell proliferation, read-out: IC50 MCF7
[8] = inhibition of cell proliferation, read-out: IC50 MCF7
[9] = Homo sapiens, MDA-MB-231, inhibition of cell proliferation, read-out: IC50 MDA-MB-231
[10] = Homo sapiens, DT-22, inhibition of cell proliferation
[11] = sc, 60 mg/kg, PK s.c. AUC0-48, mice, 60 mg/kg s.c.
[12] = Homo sapiens, MDA-MB-231, read-out: IC50 MDA-MB-231

Molecule: CC[N+](C)(CC)CCCCCCOc1ccc(C(c2ccc(OCCCCCC[N+](C)(CC)CC)cc2)=C2C3C[C@H]4C[C@@H](C3)C[C@H]2C4)cc1 [NB-115, 6-(4-(((5r,7r)-adamantan-2-ylidene)(4-((6-(diethyl(methyl)-λ^4-azaneyl)hexyl)oxy)phenyl)methyl)phenoxy)-N,N-diethyl-N-methylhexan-1-aminium diiodide]
IC50 (MCF7 cells; [5]): 1.1 µM | half-life ([1]; sc): 25 to 40 h | AUC(0-t) [1, 6]: 746 µM·h | Expression of ATF3 (gene suppressed by FOXM1) [2]: increased | Expression of FOXM1 stimulated target genes (FOXM1C, AURKB, CCNB1, PLK1) [2]: significantly reduced | Tumor growth in vivo, low doses ([3]; 5 or 10 mg/kg s.c. every second or third day): greatly suppress tumor growth | Growth of DT22-Luc xenograft tumors, low doses ([3]; NB-115 s.c. daily 2 or 6 mg/kg, NB-63 s.c. daily 20 mg/kg until day 20, then 10 mg/kg every other day): suppress the growth; also recorded: effective in suppressing the growth | Animal body weight ([3]; same low-dose regimens as tumor study (FIG. 14B)): do not affect; also recorded: little impact | Expression of ATF3 (gene suppressed by FOXM1) [4]: increased | Expression of FOXM1 stimulated target genes (FOXM1C, AURKB, CCNB1, PLK1) [4]: significantly reduced

Molecule: C[N+]1(CCCCCCOc2ccc(C(c3ccc(OCCCCCC[N+]4(C)CCCCC4)cc3)=C3C4C[C@H]5C[C@@H](C4)C[C@H]3C5)cc2)CCCCC1 [NB-71, 1,1′-((((((5r,7r)-adamantan-2-ylidene)methylene)bis(4,1-phenylene))bis(oxy))bis(hexane-6,1-diyl))bis(1-methylpiperidin-1-ium) diodide]
IC50 (MCF7 cells; [5]): 1.1 µM | half-life ([1]; sc): 25 to 40 h | half-life ([1]; sc, 60 mg/kg): 119 h | AUC(0-t) [1, 11]: 364 µM·h | Blood levels after oral administration ([1]; mice, oral, doses of FIGS. 6A-6B): very low levels | Blood levels after s.c. injection ([1]; mice, s.c., doses of FIGS. 6A-6B): very high blood levels | IC50 (MDA-MB-231 cells; [12]): 0.5 µM | IC50 (DT22 cells; [10]): 0.8 µM

Molecule: C[N+]1(CCCCCCCCOc2ccc(C(=C3C4CC5CC(C4)CC3C5)c3ccc(OCCCCCCCC[N+]4(C)CCCCCC4)cc3)cc2)CCCCCC1.[I-].[I-] [NB-81, 1,1′-((((((5r,7r)-adamantan-2-ylidene)methylene)bis(4,1-phenylene))bis(oxy))bis(octane-8,1-diyl))bis(1-methylazepan-1-ium) diiodide]
IC50 (MCF7 cells; [7]): 0.6 µM | Outcome of animals in PK study ([1]; mice, 40 mg/kg s.c adm.): Died at 40 mg/kg s.c adm. | IC50 (DT22 cells; [10]): 1.6 µM

Molecule: 6-(4-((Z)-((5S,7S)-adamantan-2-ylidene)(4-chlorophenyl)methyl)phenoxy)-N,N-diethylhexan-1-amine [NB-54]
IC50 (MCF7 cells; [8]): 4 µM | IC50 (MDA-MB-231 cells; inhibition of cell proliferation, read-out: IC50 MDA-MB-231): 4 µM

Molecule: C[N+]1(CCCCOc2ccc(C(=C3C4CC5CC(C4)CC3C5)c3ccc(OCCCC[N+]4(C)CCCCC4)cc3)cc2)CCCCC1 [NB-86, 1-(4-(4-((E)-((5R,7R)-adamantan-2-ylidene)(4-(4-(1-metheyliumylpiperidin-1-ium-1-yl)butoxy)phenyl)methyl)phenoxy)butyl)-1-methylpiperidin-1-ium diiodide]
IC50 (MCF7 cells; [7]): 1.4 µM | IC50 (MDA-MB-231 cells; [9]): 1.1 µM | IC50 (DT22 cells; [10]): 1.9 µM

Molecule: c1cc(C(=C2C3CC4CC(C3)CC2C4)c2ccc(OCCCCCCN3CCCCCC3)cc2)ccc1OCCCCCCN1CCCCCC1 [NB-72, 1,1′-((((((5r,7r)-Adamantan-2-ylidene)methylene)bis(4,1-phenylene))bis(oxy))bis(hexane-6,1-diyl))bis(azepane)]
IC50 (MCF7 cells; [5]): 0.7 µM | IC50 (DT22 cells; [10]): 0.7 µM

Molecule: c1cc(C(c2ccc(OCCCCCCN3CCCCC3)cc2)=C2[C@H]3C[C@@H]4C[C@@H](C[C@H]2C4)C3)ccc1OCCCCCCN1CCCCC1 [NB-70, 1,1′-((((((5r,7r)-Adamantan-2-ylidene)methylene)bis(4,1-phenylene))bis(oxy))bis(hexane-6,1-diyl))dipiperidine]
IC50 (MCF7 cells; [5]): 0.7 µM | half-life ([1]; po, 60 mg/kg): 90.9 h | AUC(0-t) ([1]; po, 60 mg/kg, PK p.o. AUC0-48, mice, 60 mg/kg p.o.): 6 µM·h | AUC(0-t) [1, 11]: 10.2 µM·h | IC50 (MDA-MB-231 cells; [12]): 0.9 µM

Further lines, with some results ahead:

IC50 (MCF7 cells; [7]): 0.6 µM | IC50 (MCF7 cells; [8]): 0.7 µM | IC50 (MDA-MB-231 cells; [9]): 0.5 µM
Molecule: C[N+]1(CCCCCOc2ccc(C(=C3C4CC5CC(C4)CC3C5)c3ccc(OCCCCC[N+]4(C)CCCCCC4)cc3)cc2)CCCCCC1 [NB-89, 1,1′-((((((5r,7r)-adamantan-2-ylidene)methylene)bis(4,1-phenylene))bis(oxy))bis(pentane-5,1-diyl))bis(1-methylazepan-1-ium) diiodide]
IC50 (DT22 cells; [10]): 1.1 µM

IC50 (MCF7 cells; [7]): 2.7 µM
Molecule: c1cc(C(=C2C3CC4CC(C3)CC2C4)c2ccc(OCCCCCCCCN3CCCCCC3)cc2)ccc1OCCCCCCCCN1CCCCCC1 [NB-80, 1,1′-((((((5r,7r)-adamantan-2-ylidene)methylene)bis(4,1-phenylene))bis(oxy))bis(octane-8,1-diyl))bis(azepane)]
IC50 (DT22 cells; [10]): 3.4 µM

IC50 (MCF7 cells; [7]): 1.7 µM | IC50 (MDA-MB-231 cells; [9]): 0.9 µM
Molecule: C[N+]1(CCCCOc2ccc(C(=C3C4CC5CC(C4)CC3C5)c3ccc(OCCCC[N+]4(C)CCCCCC4)cc3)cc2)CCCCCC1 [NB-87, 1,1′-((((((5r,7r)-adamantan-2-ylidene)methylene)bis(4,1-phenylene))bis(oxy))bis(butane-4,1-diyl))bis(1-methylazepan-1-ium) diiodide]
IC50 (DT22 cells; [10]): 1.5 µM

IC50 (MCF7 cells; [7]): 3.5 µM | IC50 (MDA-MB-231 cells; [9]): < 5 µM
Molecule: CCN(CC)CCOCCOCCOc1ccc(C(=C2C3CC4CC(C3)CC2C4)c2ccc(OCCOCCOCCN(CC)CC)cc2)cc1 [NB-53, 2,2′-(((((((((5r,7r)-adamantan-2-ylidene)methylene)bis(4,1-phenylene))bis(oxy))bis(ethane-2,1-diyl))bis(oxy))bis(ethane-2,1-diyl))bis(oxy))bis(N,N-diethylethan-1-amine)]

IC50 (MCF7 cells; [7]): 0.8 µM | PK p.o. AUC0-48 ([1]; mice, 60 mg/kg p.o.): too low to measure | PK s.c. AUC0-48 ([1]; mice, 60 mg/kg s.c.): 6.1 µM·h | PK s.c. t1/2 ([1]; mice, 60 mg/kg s.c.): 45.6 h | IC50 for inhibition of proliferation of breast cancer cell lines (breast cancer cell lines): submicromolar
Molecule: CN1CCN(CCCCCCOc2ccc(C(=C3C4CC5CC(C4)CC3C5)c3ccc(OCCCCCCN4CCN(C)CC4)cc3)cc2)CC1 [NB-66, 4,4′-((((((5r,7r)-adamantan-2-ylidene)methylene)bis(4,1-phenylene))bis(oxy))bis(hexane-6,1-diyl))bis(1-methylpiperazine)]

IC50 (MCF7 cells; [7]): 1.5 to 2 µM | IC50 (MCF7 cells; [8]): 1.5 µM | half-life ([1]; po, 40 mg/kg): 15.1 h | AUC(0-t) ([1]; po, 40 mg/kg, PK p.o. AUC0-48, mice, 40 mg/kg p.o.): 5.6 µM·h | half-life ([1]; sc, 40 mg/kg): 22.5 h | AUC(0-t) [1, 6]: 13.3 µM·h
Molecule: CCN(CC)CCCCCCOc1ccc(C(=C2C3CC4CC(C3)CC2C4)c2ccc(O)cc2)cc1 [NB-41, 4-((E)-((5R,7R)-adamantan-2-ylidene)(4-((6-(diethylamino)hexyl)oxy)phenyl)methyl)phenol]
IC50 (DT22 cells; [10]): 1.5 to 2 µM | IC50 (DT22 cells; inhibition of cell proliferation, read-out: IC50 DT-22): 2 µM

IC50 (MCF7 cells; [7]): 1.7 µM | IC50 (MDA-MB-231 cells; [9]): 0.7 µM
Molecule: C[N+]1(CCCCCOc2ccc(C(=C3C4CC5CC(C4)CC3C5)c3ccc(OCCCCC[N+]4(C)CCCCC4)cc3)cc2)CCCCC1 [NB-88, 1,1′-((((((5r,7r)-adamantan-2-ylidene)methylene)bis(4,1-phenylene))bis(oxy))bis(pentane-5,1-diyl))bis(1-methylpiperidin-1-ium) diiodide]
IC50 (DT22 cells; [10]): 1.2 µM
